Literature values in patent publication US11554108B2, “Methods and compositions for treating cutaneous fungal infections” (Xeropedix, Inc., priority 2016, dated 2023).
Values after ≈ are worked out from the molar mass of the structure shown. Read-outs that look alike come from different tables or passages of the source.

Assays:
[1] = biological target: transient receptor potential vanilloid 1 (TRPV1) cation channel (Homo sapiens, UniProt Q8NER1); settings: lowered from approximately 42° C.
[2] = not given; remark: listed apart in the source

transient receptor potential vanilloid 1 (TRPV1) cation channel, sequence (Q8NER1 whole entry): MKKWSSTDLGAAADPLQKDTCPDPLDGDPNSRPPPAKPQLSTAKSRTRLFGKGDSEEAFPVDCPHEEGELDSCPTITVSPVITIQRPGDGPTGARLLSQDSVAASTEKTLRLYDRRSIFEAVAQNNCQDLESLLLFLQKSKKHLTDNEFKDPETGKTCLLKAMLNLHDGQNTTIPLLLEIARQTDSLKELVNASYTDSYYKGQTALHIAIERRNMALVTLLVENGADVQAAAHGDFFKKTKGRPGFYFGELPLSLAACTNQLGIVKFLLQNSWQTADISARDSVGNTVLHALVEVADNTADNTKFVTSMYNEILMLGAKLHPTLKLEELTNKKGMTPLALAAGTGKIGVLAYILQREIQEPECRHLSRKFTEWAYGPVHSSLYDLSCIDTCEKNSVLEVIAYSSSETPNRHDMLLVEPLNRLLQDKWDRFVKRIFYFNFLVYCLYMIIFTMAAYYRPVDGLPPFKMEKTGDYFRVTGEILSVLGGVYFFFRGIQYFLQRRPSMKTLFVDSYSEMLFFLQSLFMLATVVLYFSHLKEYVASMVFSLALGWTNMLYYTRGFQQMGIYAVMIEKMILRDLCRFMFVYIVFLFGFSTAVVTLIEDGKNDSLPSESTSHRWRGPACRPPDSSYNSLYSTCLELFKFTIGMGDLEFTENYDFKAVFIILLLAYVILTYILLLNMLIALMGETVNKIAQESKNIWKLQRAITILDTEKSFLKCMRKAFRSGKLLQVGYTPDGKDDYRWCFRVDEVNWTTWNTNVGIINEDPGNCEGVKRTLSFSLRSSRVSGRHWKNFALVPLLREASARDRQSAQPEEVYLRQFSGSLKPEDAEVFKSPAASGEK

## CCO [Ethanol]
[1]
  threshold temperature at which TRPV1 signals excessive heat: 34 °C

## [Cl][Al]([Cl])[Cl] [aluminum chloride]
T. mentagrophytes; 10% aluminum chloride, equal to 100,000 μg/ml
  inhibition of T. mentagrophytes in an in vitro MIC test: no inhibition
T. mentagrophytes; 20% aluminum chloride, equal to 200,000 μg/ml
  inhibition of T. mentagrophytes in an in vitro MIC test: inhibited the fungus
Tinea pedis; 30% aluminum chloride solution
  reduction of unpleasant symptoms of tinea pedis: effective at reducing unpleasant symptoms
  resolution of the infection: did not resolve the infection entirely

## CN(C/C=C/C#CC(C)(C)C)Cc1cccc2ccccc12 [terbinafine]
24 hours after a single application of 1% terbinafine cream
  stratum corneum concentration: 37 ng/cm^2
24 hours after application of 1% terbinafine cream, converted with 1 ng/cm^2=4 μg/ml
  concentration of terbinafine in the stratum corneum: approximately 148 μg/ml
T. rubrum
  minimum fungicidal concentration against T. rubrum: 3 ng/mL (≈ 0.0103 µM)
[2]; ethanol gel compared to a standard cream formulation
  rate of absorption, maximum concentration, and half-life in the skin: improve
[2]; in vivo, ethanol solution compared to isopropyl myristate solution
  percutaneous terbinafine absorption: enhanced

## aluminum chlorohydrate
Tinea pedis; in vivo
  effectiveness against tinea pedis relative to aluminum chloride: less effective than aluminum chloride
